Data on 85 compounds can be found in PubChem BioAssay AID1191 (EPA DSSTox, 2008).

This data set relates to hamster chronic carcinogenicity bioassay, TD50. Put plainly: DSSTox (CPDBAS) Carcinogenic Potency Database Summary Hamster Bioassay Results. The source says: The Carcinogenic Potency Database (CPDB) is a unique and widely used international resource of the results of over 6500 chronic, long-term animal cancer tests on over 1500 chemical substances. The CPDB provides easy access to the bioassay literature, with qualitative and quantitative analyses of both positive and negative experiments that have been published over the past 50 years in the general literature and by the National Cancer Institute/National Toxicology Program. The CPDB standardizes the diverse literature of cancer bioassays that vary widely in protocol, histopathological examination and nomenclature, and in the published author's choices of what information to provide in their papers. Results are reported in the CPDB for tests in rats, mice, hamsters, dogs, and nonhuman primates, and are based on the most positive result among all experiments for each sex-species. The DSSTox CPDBAS (all species) file incorporates data from the CPDB Summary Tables for the full list of over 1500 chemical substances tested in at least one species. Summary bioassay results for Hamster (TD50, tumor sites, male, female, both sexes) are provided in the CPDB Summary Tables and the DSSTox CPDBAS file for over 80 chemical substances.
TD50 is a standardized quantitative measure of carcinogenic potency (analogous to an LD50) and is reported in the CPDB Summary Table for each species. Activity Score for actives is computed by mapping of LOG10 (1/TD50_Hamster_mmol) activity values spanning range [MIN, MAX] onto Integer 1-100 Activity Score range, where 100 is highest potency and 1 is lowest: Activity Score = 100 * INTEGER[(log10(1/Activity) - MIN)/(MAX - MIN)]. If activity is reported but no TD50_Hamster_mmol value is computed, such as for a mixture, the Activity Score is assigned the activity value "50". […] Target sites are reported for each sex-species group with a positive result in the CPDB on the basis of a positive author's opinion for the particular site, using all results from both the general literature and NCI/NTP bioassays. If a chemical has two or more target sites listed, the results may be from different experiments, and a single site may be a target organ in more than one experiment, as well. Blank entry in TargetSites field indicates no results reported.

Structures are written as SMILES. Activity calls are given as the source filed them.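 Rule for the calls: active = at least one hamster carcinogenic potency value with a tumor site listed for any sex group; inactive = no potency or tumor site yet a negative hamster study.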

As for `O=CNc1nc(-c2ccc([N+](=O)[O-])o2)cs1`, the Potency is 9.77 mg/kg/day.

For `CNNC`, the Potency is 0.179 mg/kg/day. Consider `S=C=NCCc1ccccc1`, for which the outcome was inactive.

For `CCOC(=O)N(C)N=O`, the Potency is 0.127 mg/kg/day. For `CC=O`, the Potency is 565 mg/kg/day. Still for that read-out and setting: in the case of `Cc1cc(=O)[nH]c(=S)[nH]1` it was 53.4 mg/kg/day.

In the case of `Cc1cccc(Nc2cc(Cl)nc(SCC(=O)O)n2)c1C`, the outcome is “inactive; no positive results”.

Turning to `CN(C)CCN(Cc1cccs1)c1ccccn1`, the outcome is “inactive; no positive results”. Consider `F[B-](F)(F)F`, for which the outcome was “inactive; no positive results”. With `CCN(N=O)C(=O)NCCO`, the Potency was 1.04 mg/kg/day. `CN(CC(O)CO)N=O` (stereo not given): the Potency was 0.94 mg/kg/day. As for `C=CC(=C)Cl`, the outcome was “inactive; no positive results”. For the compound `COCCl`, the Potency is 16.4 mg/kg/day. `ClC1=C(Cl)[C@]2(Cl)[C@@H]3[C@@H]4C[C@@H]([C@H]5O[C@@H]45)[C@@H]3[C@@]1(Cl)C2(Cl)Cl`: the outcome is “inactive; no positive results”. In the case of `O=NN1CCCC1c1cccnc1` (stereo not given), the Potency is 10.8 mg/kg/day. Regarding `COc1ccc(O)c(C(C)(C)C)c1`, the outcome is “inactive; no positive results”. As for `OCC1CO1` (stereo not given), the Potency is 56.1 mg/kg/day. Regarding `C[C@@H]1O[C@@H](OC[C@H]2O[C@@H](Oc3c(-c4ccc(O)c(O)c4)oc4cc(O)cc(O)c4c3=O)[C@H](O)[C@@H](O)[C@@H]2O)[C@H](O)[C@H](O)[C@H]1O`, the outcome is “inactive; no positive results”. On the same count and under the same terms, in the case of `COC1=CC(=O)C[C@@H](C)[C@]12Oc1c(Cl)c(OC)cc(OC)c1C2=O` it was “inactive; no positive results”; in that of `N#[N+]c1ccccc1`, “inactive; no positive results”. Regarding `CC(=O)CN(CC(O)CO)N=O` (stereo not given), the Potency is 0.754 mg/kg/day.

Take `O=c1ccc2ccccc2o1`: the outcome is “inactive; no positive results”. On the same count and under the same terms, then `O=c1c(O)c(-c2ccc(O)c(O)c2)oc2cc(O)cc(O)c12`, with “inactive; no positive results”. For `CC(=O)N(O)c1ccc2c(c1)Cc1ccccc1-2`, the Potency was 2.1 mg/kg/day. Take `N=C1C=CC(=C(c2ccc(N)cc2)c2ccc(N)cc2)C=C1`: the outcome was “inactive; no positive results”. Take `CN(C)N`: the Potency was 124 mg/kg/day. Turning to `O=S(=O)(O)O`, the Potency was 118 mg/kg/day.

For the compound `CC(=O)CN(N=O)C(N)=O`, the Potency is 0.13 mg/kg/day. On to `O=NN1CCC1`, for which the Potency was 7.14 mg/kg/day.

Take `CN(CCCC(=O)c1cccnc1)N=O`: the result was inactive.

On to `CC1=CC(=C(c2ccc(N)cc2)c2ccc(N)cc2)C=CC1=N`, for which the outcome is “inactive; no positive results”.

Regarding `CN(C)C(=O)Cl`, the Potency is 0.625 mg/kg/day. Turning to `O=CNNc1nc(-c2ccc([N+](=O)[O-])o2)cs1`, the Potency is 16.6 mg/kg/day. `c1ccc(Nc2ccc3ccccc3c2)cc1`: the outcome was “inactive; no positive results”. The same measure, in the same setting: then `O=NN(CCO)CC(O)CO` (stereo not given), with “inactive”; and `O=NN1CCCC1c1ccc[n+]([O-])c1` (stereo not given), with “inactive; no positive results”; and `Nc1ncn[nH]1`, with “inactive; no positive results”.

For the compound `O=Cc1ccco1`, the outcome was “inactive; no positive results”. Turning to `C=CCN(CC(C)=O)N=O`, the Potency was 1.19 mg/kg/day. On to `O=C(O)c1ccc(O)c(O)c1`, for which the result was inactive.

On to `ClC(Cl)=C(c1ccc(Cl)cc1)c1ccc(Cl)cc1`, for which the Potency was 202 mg/kg/day. The same measure, in the same setting: in the case of `CN(N)C=O` it was 5.8 mg/kg/day. The same measure, in the same setting: in the case of `CN(C)CCN(C)N=O` it was 3.83 mg/kg/day. Regarding `ClC=C(Cl)Cl`, the outcome was “inactive; no positive results”. For `Clc1c(Cl)c(Cl)c(Cl)c(Cl)c1Cl`, the Potency was 4.96 mg/kg/day. For `C=CCl`, the Potency is 39.4 mg/kg/day. `CC1CN(N=O)CC(C)N1N=O` (stereo not given): the Potency is 3.1 mg/kg/day. For the compound `C=O`, the outcome was “inactive; no positive results”. For `CCN(N=O)C(=O)NCC(C)=O`, the Potency was 0.443 mg/kg/day. Same read-out and setting: in the case of `O=NN1CCOC1` it was 0.798 mg/kg/day. Still for that read-out and setting: then `CC(O)CN(CC(O)CO)N=O` (stereo not given), with 1.59 mg/kg/day.

Take `CC(=O)CN(N=O)C(=O)NCCCl`: the Potency is 0.338 mg/kg/day. As for `O=S(=O)([O-])[O-].[Cd+2]`, the outcome was “inactive; no positive results”. On to `O=NN1CCOCC1`, for which the Potency is 3.57 mg/kg/day.

As for `CC(=O)Nc1nc(-c2ccc([N+](=O)[O-])o2)cs1`, the Potency is 8.91 mg/kg/day.

In the case of `NN`, the Potency is 4.16 mg/kg/day. As for `CNN`, the Potency is 11.5 mg/kg/day. With `O=NO`, the outcome is “inactive; no positive results”. Same read-out and setting: in the case of `Clc1ccc(C(c2ccc(Cl)cc2)C(Cl)(Cl)Cl)cc1` it was “inactive; no positive results”; in that of `C=C(C)C(=O)OC`, “inactive; no positive results”.

As for `CC(C)OC(=O)Nc1ccccc1`, the outcome was “inactive; no positive results”.

For the compound `[O-][Br+2]([O-])O`, the Potency is 533 mg/kg/day. Still for that read-out and setting: in the case of `CC1CN(N=O)CC(C)O1` (stereo not given) it was 2 mg/kg/day.

As to `O=C(C1CCCCC1)N1CC(=O)N2CCc3ccccc3C2C1` (stereo not given), the outcome is “inactive; no positive results”. Turning to `CC(C)OC(=O)Nc1cccc(Cl)c1`, the outcome was “inactive; no positive results”. Regarding `CC(=O)CN(CCO)N=O`, the Potency is 0.997 mg/kg/day. Regarding `CCO`, the outcome is “inactive; no positive results”.

In the case of `C=CCN(CC=C)N=O`, the Potency was 1.54 mg/kg/day. `O=[N+]([O-])c1ccc2c3c(cccc13)CC2`: the result was inactive. Turning to `NC(=O)/C(=C\c1ccc([N+](=O)[O-])o1)c1ccco1`, the Potency was 164 mg/kg/day. Regarding `CCC1(c2ccccc2)C(=O)NC(=O)NC1=O`, the outcome was “inactive; no positive results”. `NNCCO`: the outcome is “inactive; no positive results”. On to `CC(=O)Nc1ccc2c(c1)Cc1ccccc1-2`, for which the Potency is 17.4 mg/kg/day. Same read-out and setting: in the case of `NC(=O)N(CCc1ccccc1)N=O` it was 0.964 mg/kg/day. For `O=C(O)c1ccncc1`, the outcome is “inactive; no positive results”.

Take `CC(C)(Oc1ccc(C2CCCc3ccccc32)cc1)C(=O)O` (stereo not given): the outcome is “inactive; no positive results”.

Regarding `CN(Cc1cnc2nc(N)nc(N)c2n1)c1ccc(C(=O)N[C@@H](CCC(=O)O)C(=O)O)cc1`, the outcome was “inactive; no positive results”. Still for that read-out and setting: in the case of `CC(C)(OCc1ccc(-c2ccc(Cl)cc2)cc1)C(=O)O` it was “inactive; no positive results”.

For the compound `[Cd+2].[Cl-].[Cl-]`, the outcome is “inactive; no positive results”. With `CCOC(N)=O`, the Potency was 65.2 mg/kg/day.

For the compound `O=NN1CCCC1`, the Potency is 14.2 mg/kg/day. `NNC(=O)c1ccncc1`: the outcome was “inactive; no positive results”. Consider `CC1CN(N=O)CC(C)N1C` (stereo not given), for which the Potency is 1.32 mg/kg/day. On the same count and under the same terms, in the case of `O=NN1CCCCC1` it was 83.3 mg/kg/day; in that of `CC1CN(N=O)C(=O)O1` (stereo not given), 0.172 mg/kg/day.
